Measurements from US20240209028A1, “CNP COMPOUNDS” (priority 2022, published 2024).

Molecular target: neprilysin (NEP) (Homo sapiens, UniProt P08473)
Sequence (P08473 whole entry): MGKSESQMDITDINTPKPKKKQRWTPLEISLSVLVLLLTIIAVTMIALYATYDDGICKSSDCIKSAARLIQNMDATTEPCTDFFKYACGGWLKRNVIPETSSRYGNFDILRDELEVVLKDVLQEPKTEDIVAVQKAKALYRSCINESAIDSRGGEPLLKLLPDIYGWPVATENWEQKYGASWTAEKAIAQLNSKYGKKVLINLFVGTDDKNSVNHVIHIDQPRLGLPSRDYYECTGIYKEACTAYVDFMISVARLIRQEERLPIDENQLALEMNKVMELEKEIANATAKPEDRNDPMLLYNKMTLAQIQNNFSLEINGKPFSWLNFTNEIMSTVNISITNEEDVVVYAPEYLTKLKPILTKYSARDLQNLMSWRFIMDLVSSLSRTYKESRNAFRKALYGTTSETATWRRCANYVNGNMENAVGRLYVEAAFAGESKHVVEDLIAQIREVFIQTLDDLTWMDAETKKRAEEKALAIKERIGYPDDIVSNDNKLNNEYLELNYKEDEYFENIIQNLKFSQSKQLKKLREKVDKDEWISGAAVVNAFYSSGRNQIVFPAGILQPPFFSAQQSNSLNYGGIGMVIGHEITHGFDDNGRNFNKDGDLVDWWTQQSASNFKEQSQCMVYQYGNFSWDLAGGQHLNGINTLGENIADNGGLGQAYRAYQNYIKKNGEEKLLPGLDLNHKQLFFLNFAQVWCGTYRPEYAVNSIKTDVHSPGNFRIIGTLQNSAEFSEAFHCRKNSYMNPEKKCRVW
Procedure: Therefore, an in vitro neprilysin stability assay was set up to test the neprilysin mediated degradation of selected CNP compounds.
Procedure: In short, the assay buffer consisted of PBS-buffer (pH 7.4, ThermoFisher Scientific) with a final concentration of 0.005% v/v tween 20 (Sigma-Aldrich). Recombinant human neprilysin (rhNEP; R&D Systems) and the CNP compounds were dissolved in assay buffer. Native CNP22 (0065, Chem. 1) was included as positive control on each day of incubation. Initially, the CNP compound (the final concentration was 1000 nM) was pre-incubated in assay buffer for 10 min at 37° C. The assay was started by adding either rhNEP (final concentration was 2 μg protein per mL) or assay buffer (adsorption experiment) and the incubation was conducted at 37° C. […] The mixture was centrifuged at 13000 rpm at 4° C. for 20 minutes. After centrifugation, one volume of supernatant was mixed with one volume of Milli-Q water.
Analysis by LCMS: The mixture was analysed by LCMS using an Acquity UPLC Peptide CSH C18 analytical column from Waters (130 Å, 1.7 μm, 1*50 mm) operated at 60° C. A gradient elution was conducted with a Nexera UHPLC system (Shimadzu) using mobile phase A (consisting of Milli-Q water with 0.1% formic acid) and mobile phase B (consisting of acetonitrile with 0.1% formic acid). The flow was 0.3 ml/min. A zenoTOF 7600 mass spectrometer (Sciex) was used as detector and operated in positive electrospray ionisation mode. Data was recorded in full scan mode (m/z 300-1700).
Calibration curves were prepared in assay buffer and treated as study samples. These samples were used for calculating the concentration of the relevant CNP compound in the in vitro samples. Quality control samples were included. For at least 75% of the standards and QCs, the deviation between nominal and calculated concentration was below 20%.
All incubations were conducted in duplicate. Data was reported as percent remaining at 90 min (based on calculated concentrations) compared to the average concentration in the 0.5-minute time point samples.

CC[C@H](C)[C@@H]1NC(=O)[C@H](CCCNC(=N)N)NC(=O)[C@H](CC(=O)O)NC(=O)[C@H](CC(C)C)NC(=O)[C@H](CCCCN)NC(=O)[C@H](CC(C)C)NC(=O)CNC(=O)[C@H](Cc2ccccc2)NC(=O)[C@@H](NC(=O)CNC(=O)[C@H](CCCCN)NC(=O)[C@H](CO)NC(=O)[C@H](CC(C)C)NC(=O)CN)CSSC[C@@H](C(=O)O)NC(=O)CNC(=O)[C@H](CC(C)C)NC(=O)CNC(=O)[C@H](CO)NC(=O)[C@H](CCSC)NC(=O)[C@H](CO)NC(=O)CNC1=O [Compound ID 0065, hCNP22]
stability in the presence of recombinant human neprilysin: rapidly degraded
